Data reported in patent publication US7045532B2 (Millennium Pharmaceuticals, Inc., priority 1999, dated 2006).
Where two headings read alike, the source gives them in different places.

How the values were obtained:
[1] = molecular target: T1, ACE-2 (Homo sapiens, UniProt Q9BYF1); experiment: ACE-2 Competitive Substrate Assay (ACS Assay); type: biochemical
T1 construct: a stop codon inserted after the serine immediately preceding the transmembrane domain; made in house; host or cells: CHO K1 cells (transient transfection, purified from conditioned medium)

[2] = molecular target: T2, ACE (Sigma, A2580) (Sus scrofa, UniProt F1RRW5); experiment: ACE enzymatic activity assay; type: biochemical, porcine; conditions: Ki class, compounds tested in 5% DMSO
T2 construct: ACE from porcine kidney; purchased Sigma A2580; host or cells: porcine kidney
T2 sequence (F1RRW5 34-1309): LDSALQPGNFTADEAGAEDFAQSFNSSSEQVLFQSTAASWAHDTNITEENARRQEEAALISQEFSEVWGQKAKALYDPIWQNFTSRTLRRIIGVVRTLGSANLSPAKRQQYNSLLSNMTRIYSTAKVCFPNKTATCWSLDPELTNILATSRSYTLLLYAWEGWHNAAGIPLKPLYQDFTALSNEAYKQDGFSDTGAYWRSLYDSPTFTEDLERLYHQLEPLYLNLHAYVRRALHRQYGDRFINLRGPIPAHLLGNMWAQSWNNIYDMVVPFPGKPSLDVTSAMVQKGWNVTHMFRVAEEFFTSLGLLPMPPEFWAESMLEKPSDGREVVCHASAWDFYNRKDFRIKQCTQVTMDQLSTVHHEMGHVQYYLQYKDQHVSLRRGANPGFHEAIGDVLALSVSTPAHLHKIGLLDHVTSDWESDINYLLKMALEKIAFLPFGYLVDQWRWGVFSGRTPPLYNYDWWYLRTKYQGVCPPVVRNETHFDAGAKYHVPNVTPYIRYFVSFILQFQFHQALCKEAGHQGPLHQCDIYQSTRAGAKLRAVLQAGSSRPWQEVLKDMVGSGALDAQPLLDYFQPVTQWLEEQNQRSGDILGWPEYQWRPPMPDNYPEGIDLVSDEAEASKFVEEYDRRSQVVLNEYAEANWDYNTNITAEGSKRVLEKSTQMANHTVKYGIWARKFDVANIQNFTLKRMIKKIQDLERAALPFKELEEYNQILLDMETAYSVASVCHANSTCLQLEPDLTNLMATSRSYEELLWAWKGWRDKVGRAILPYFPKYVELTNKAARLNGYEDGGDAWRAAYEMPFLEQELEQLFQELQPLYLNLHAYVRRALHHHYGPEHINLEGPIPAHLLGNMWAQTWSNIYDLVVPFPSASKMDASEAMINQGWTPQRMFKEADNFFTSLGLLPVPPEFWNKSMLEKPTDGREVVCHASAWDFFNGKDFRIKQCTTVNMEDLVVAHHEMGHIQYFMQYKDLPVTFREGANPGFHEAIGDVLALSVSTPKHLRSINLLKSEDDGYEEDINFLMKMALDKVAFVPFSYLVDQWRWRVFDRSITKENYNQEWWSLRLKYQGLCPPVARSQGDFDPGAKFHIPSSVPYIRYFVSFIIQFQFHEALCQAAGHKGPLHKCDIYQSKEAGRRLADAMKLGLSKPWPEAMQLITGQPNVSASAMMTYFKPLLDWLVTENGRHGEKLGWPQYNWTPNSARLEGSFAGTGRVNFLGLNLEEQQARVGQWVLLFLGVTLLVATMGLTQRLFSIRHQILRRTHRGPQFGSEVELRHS
Summary of the method: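 ACE (1 nM final) in 50 mM HEPES, 300 mM NaCl, 0.01% Brij-35, pH 7.5, with compound in 5% DMSO at 12 concentrations, 25 °C. Substrate cleavage run ~30 min, stopped with EDTA; fluorescence read at excitation 320 nm, emission 405 nm.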

[3] = molecular target: T3, Carboxypeptidase A (Bos taurus, UniProt P00730); experiment: Carboxypeptidase A activity assay; type: biochemical; conditions: Ki class, compounds tested in 5% DMSO
T3 sequence (P00730 111-419): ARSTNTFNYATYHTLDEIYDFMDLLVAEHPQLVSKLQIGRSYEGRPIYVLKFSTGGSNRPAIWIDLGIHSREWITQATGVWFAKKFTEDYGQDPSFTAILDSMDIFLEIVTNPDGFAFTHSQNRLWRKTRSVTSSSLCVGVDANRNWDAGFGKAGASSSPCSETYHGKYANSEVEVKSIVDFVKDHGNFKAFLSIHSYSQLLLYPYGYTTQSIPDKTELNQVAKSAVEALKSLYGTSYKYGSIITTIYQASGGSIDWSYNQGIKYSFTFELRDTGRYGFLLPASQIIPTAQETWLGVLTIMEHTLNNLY
Summary of the method: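 Bovine carboxypeptidase A activity followed at 328 nm in 5% DMSO, reaction stopped with EDTA. Activity measured at 12 compound concentrations. Ki derived from apparent Ki as Ki=Kiapp/(1+[S]/Km).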

[4] = Ki class, compounds tested in 5% DMSO, 12 concentrations, read-out: Human ACE-2 Activity
[5] = Ki class, compounds tested in 5% DMSO, 12 compound concentrations, Ki=Kiapp/(1+[S]/Km), read-out: Human ACE-2 Activity
[6] = Table 3, very good ACE-2 inhibiting compounds, species not given, read-out: ACE-2 Activity, Ki

T1 sequence (Q9BYF1 18-740 limits assumed): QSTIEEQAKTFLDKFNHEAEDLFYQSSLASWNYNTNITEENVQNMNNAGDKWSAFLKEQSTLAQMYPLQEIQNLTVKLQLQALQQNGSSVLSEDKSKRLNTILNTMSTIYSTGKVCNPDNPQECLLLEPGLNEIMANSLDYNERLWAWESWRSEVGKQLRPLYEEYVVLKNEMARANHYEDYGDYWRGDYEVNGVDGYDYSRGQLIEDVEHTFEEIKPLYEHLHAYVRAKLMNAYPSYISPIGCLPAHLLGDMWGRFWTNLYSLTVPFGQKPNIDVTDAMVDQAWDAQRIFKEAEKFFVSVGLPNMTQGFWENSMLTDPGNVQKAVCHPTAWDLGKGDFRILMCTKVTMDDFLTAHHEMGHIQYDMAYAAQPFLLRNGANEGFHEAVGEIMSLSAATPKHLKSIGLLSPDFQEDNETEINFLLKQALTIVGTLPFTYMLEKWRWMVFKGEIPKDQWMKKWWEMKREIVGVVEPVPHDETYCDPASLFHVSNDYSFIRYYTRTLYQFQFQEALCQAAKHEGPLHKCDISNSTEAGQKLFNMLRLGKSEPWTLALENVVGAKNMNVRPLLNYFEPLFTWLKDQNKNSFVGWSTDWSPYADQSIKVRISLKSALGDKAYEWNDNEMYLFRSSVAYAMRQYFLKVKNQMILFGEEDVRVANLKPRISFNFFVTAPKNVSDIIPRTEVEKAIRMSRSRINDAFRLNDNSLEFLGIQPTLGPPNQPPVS

SMILES | Ki [1, 4] [µM] | Ki ([2]; 12 concentrations) [µM] | Ki ([3]; 12 concentrations) [µM] | Ki [1, 5] [µM] | Ki [1, 6] [µM] | Ki ([2]; 12 compound concentrations) [µM] | Ki ([3]; 12 compound concentrations) [µM]
CCCC[C@H](N[C@@H](C(=O)O)c1ccccc1)C(=O)O [BX, 2-[(Carboxy-phenyl-methyl)-amino]-hexanoicacid] | > 0.5 | > 50 | > 50 | – | – | – | –
CC(C)C[C@H](NCc1ccc(C(=O)O)cc1)C(=O)O [CN, 4-[(1-Carboxy-3-methyl-butylamino)-methyl]-benzoic acid] | > 0.5 | > 50 | > 50 | – | – | – | –
CC(C)CC(N[C@@H](Cc1cncn1Cc1ccc(C(C)(C)C)cc1)C(=O)O)C(=O)O (single isomer, unassigned) [HY, 2-[2-[3-(4-tert-Butyl-benzyl)-3H-imidazol-4-yl]-1-carboxy-ethylamino)-4-methyl-pentanoic acid] | – | – | – | < 0.1 | 0.05 to 0.1 | < 10 | < 10
CSCC[C@H](NC(CCc1ccccc1)C(=O)O)C(=O)O (some centres unmarked) [Y, 2-(1-Carboxy-3-methylsulfanyl-propylamino)-4-phenyl-butync acid] | > 0.5 | > 50 | > 50 | – | – | – | –
CC(C)C[C@H](N[C@H](Cc1ccccc1)C(=O)O)C(=O)O [T, 2-(1-Carboxy-2-phenyl-ethylamino)-4-methyl-pentanoic acid] | > 0.5 | > 50 | 10 to 50 | – | – | – | –
CC(C)CC(N[C@@H](Cc1cncn1Cc1ccc(C#N)cc1)C(=O)O)C(=O)O (single isomer, unassigned) [HA, 2-[1-Carboxy-2-[3-(4-cyano-benzyl)-3H-imidazol-4-yl]-ethylamino)4-methyl-pentanoic acid] | – | – | – | < 0.1 | 0.05 to 0.1 | 10 to 50 | 10 to 50
O=C(O)[C@H](CC1CCCCC1)N[C@@H](C(=O)O)c1ccccc1 [BP, 2-[(Carboxy-phenyl-methyl)-amino]-3-cyclohexyl-propionic acid] | > 0.5 | > 50 | > 50 | – | – | – | –
CCC(NC(Cc1cccs1)C(=O)O)C(=O)O (centres unmarked) [AK, 2-(1-Carboxy-2-thiophen-2-yl-ethylamino)-butync acid] | > 0.5 | > 50 | > 50 | – | – | – | –
CCCC(NC(Cc1cccs1)C(=O)O)C(=O)O (centres unmarked) [AI, 2-(1-Carboxy-2-thiophen-2-yl-ethylamino)-pentanoic acid] | > 0.5 | > 50 | > 50 | – | – | – | –
CCCCC(CC(=O)O)N[C@@H](Cc1c[nH]cn1)C(=O)O (single isomer, unassigned) [ES, 3-[1-Carboxy-2-(1H-imidazol-4-yl)-ethylamino]heptanoic acid] | > 0.5 | > 50 | > 50 | – | – | – | –
CC(C)CC(N[C@H](CC(=O)O)Cc1ccsc1)C(=O)O (stereo in doubt) [EJ, 2-(1-Carboxymethyl-2-thiophen-3-yl-ethylamino)-4-methyl-pentanoic acid] | > 0.5 | > 50 | > 50 | – | – | – | –
CC(C)CC(NC(CC(=O)O)c1ccccc1)C(=O)O (centres unmarked) [CQ, 2-(2-Carboxy-1-phenyl-ethylamino)-4-methyl-pentanoic acid] | > 0.5 | > 50 | > 50 | – | – | – | –
O=C(O)C(CCc1ccccc1)N[C@@H](CC1CCCCC1)C(=O)O (some centres unmarked) [BG, 2-(1-Carboxy-2-cyclohexyethylamino)-4-phenyl-butync acid] | > 0.5 | > 50 | > 50 | – | – | – | –
CSCC[C@H](NC(C)C(=O)O)C(=O)O (some centres unmarked) [AM, 2-(1-Carboxy-ethylamino)-4-methylsulfanyl-butync acid] | > 0.5 | > 50 | > 50 | – | – | – | –

Continued, values first:

Ki [1, 4] [µM] | Ki ([2]; 12 concentrations) [µM] | Ki ([3]; 12 concentrations) [µM] | Ki [1, 5] [µM] | Ki [1, 6] [µM] | Ki ([2]; 12 compound concentrations) [µM] | Ki ([3]; 12 compound concentrations) [µM] | SMILES
> 0.5 | > 50 | > 50 | – | – | – | – | CCC(N[C@@H](Cc1c[nH]cn1)C(=O)O)C(=O)O (some centres unmarked)
> 0.5 | > 50 | > 50 | – | – | – | – | CC(C)C[C@H](N[C@H](CCc1ccccc1)C(=O)O)C(=O)OC(C)(C)C [DA, 2-(1-Carboxy-3-phenyl-propylamino)-4-methyl-pentanoic acid tert-butyl ester]
> 0.5 | > 50 | > 50 | – | – | – | – | CC(C)CC(NCC(C)C(=O)O)C(=O)O (centres unmarked) [CG, 2-(2-Carboxy-propylamino)-4-methyl-pentanoic acid]
> 0.5 | > 50 | > 50 | – | – | – | – | O=C(O)C(CO)N[C@@H](CCc1ccccc1)C(=O)O (some centres unmarked) [AB, 2-(1-Carboxy-2-hydroxy-ethylamino)-4-phenyl-butync acid]
> 0.5 | > 50 | > 50 | – | – | – | – | CC(NC(Cc1cccs1)C(=O)O)C(=O)O (centres unmarked) [AH, 2-(1-Carboxy-ethylamino)-3-thiophen-2-yl-propionic acid]
> 0.5 | > 50 | 10 to 50 | – | – | – | – | O=C(O)C(CCc1ccccc1)N[C@@H](Cc1ccccc1)C(=O)O (some centres unmarked) [AJ, 2-(1-Carboxy-2-phenyl-ethylamino)-4-phenyl-butync acid]
> 0.5 | > 50 | > 50 | – | – | – | – | CCCCCCC(N[C@H](CCc1ccccc1)C(=O)O)C(=O)O (some centres unmarked) [CH, 2-(1-Carboxy-3-phenyl-propylamino)-octanoicacid]
> 0.5 | > 50 | > 50 | – | – | – | – | C#CCC(N[C@@H](C(=O)O)c1ccccc1)C(=O)O (some centres unmarked) [BN, 2-[(Carboxy-phenyl-methyl)-amino]-pent-4-ylnoic acid]
> 0.5 | > 50 | > 50 | – | – | – | – | CCCC(N[C@@H](Cc1ccccc1)C(=O)O)C(=O)O (some centres unmarked) [AA, 2-(1-Carboxy-2-phenyl-ethylamino)-pentanoicacid]
> 0.5 | > 50 | > 50 | – | – | – | – | CC(N[C@H](CCc1ccccc1)C(=O)O)C(=O)O (some centres unmarked) [AW, 2-(1-Carboxy-ethylamino)-4-phenyl-butync acid]
> 0.5 | > 50 | > 50 | – | – | – | – | CCCC(N[C@@H](CCSC)C(=O)O)C(=O)O (stereo in doubt) [AO, 2-(1-Carboxy-3-methylsulfanyl-propylamino)-pentanoic acid]
> 0.5 | > 50 | > 50 | – | – | – | – | CC(C)C[C@H](N[C@@H](CCc1ccccc1)C(=O)O)C(N)=O [DB, 2-(1-Carbamoyl-3-methyl-butylamino)-4-phenyl-butync acid]
> 0.5 | > 50 | > 50 | – | – | – | – | CCCCC(N[C@@H](CC(C)C)C(=O)O)C(=O)O (some centres unmarked) [Q, 2-(1-Carboxy-3-methyl-butylamino)-hexanoic acid]
> 0.5 | > 50 | > 50 | – | – | – | – | CC(C)CC(N[C@@H](Cc1cncn1Cc1ccc(C(=O)O)cc1)C(=O)O)C(=O)O (single isomer, unassigned) [GO, 4-[5-[2-Carboxy-2-(1-carboxy-3-methyl-butylamino)-ethyl]-imidazol-1-ylmethyl]-benzoic acid]
